What follows are compounds tested against T1, HIV integrase (Human immunodeficiency virus type 1 group M subtype B, UniProt P04585) (assay: HIV integrase assay: strand transfer catalyzed by recombinant integrase). Details: strand transfer activity of recombinant integrase.
T1 construct: strand transfer reaction catalyzed by the recombinant integrase in vitro
Format: biochemical
Procedure: HIV Integrase Assay: Strand Transfer Catalyzed by Recombinant Integrase
Assays for the strand transfer activity of integrase were conducted according to Wolfe, A. L. et al., J. Virol. 70, 1424 (1996, hereby incorporated by reference for these purposes. Data for representative compounds of the present invention follow: […]

Q: For `CC(=O)OC1C(O)C2=C(CCC3C2(C)CC(OC(=O)CCCCCCCCCCCCCCCO)C(OS(=O)(=O)O)C3(C)C)C2=CCC(C(C)CCC3(C(C)(C)O)CO3)C21C` (centres unmarked) [Compound A1], which IC50 is on record?
A: 14 µM

Q: With `C=C(CCC(C)C1CCC2C3=C(C(O)C(OC(C)=O)C21C)C1(C)CC(O)C(OS(=O)(=O)O)C(C)(C)C1CC3)C(C)C` (centres unmarked) [Compound A3] as the compound, how does the IC50 read?
A: 15 µM

Q: `C=C(CCC(C)C1CC=C2C3=C(C(O)C(OC(C)=O)C21C)C1(C)CC(O)C(OC(=O)CCC(=O)O)C(C)(C)C1CC3)C(C)C` (centres unmarked) [Compound J] was tested. Which IC50 did it give?
A: 16 µM

Q: Which IC50 does the source give for `C=C(CCC(C)C1CC=C2C3=C(C(O)C(OC(C)=O)C21C)C1(C)CC(OC(=O)CCC(=O)O)C(O)C(C)(C)C1CC3)C(C)C` (centres unmarked) [Compound K] here?
A: 68 µM

Q: For `C=C(CC[C@@H](C)[C@H]1CC=C2C3=C([C@@H](O)[C@H](OC(C)=O)C21C)C1(C)C[C@@H](OC(=O)CN)[C@H](OC(=O)CN)C(C)(C)[C@@H]1CC3)C(C)C` (some centres unmarked) [Compound X], which IC50 is on record?
A: 5 µM

From patent publication US20010014748A1, “HIV INTEGRASE INHIBITORS” (priority 1998, published 2001)
